Laboratory results reported in a melting point compilation (Tetko et al.; mined from patent text by program, amines drawn as free bases though some values may be those of a salt).

Compared with `Cc1cc(C)cc(-c2cnn3c(-c4cccc(-c5nnn(CCN6CCCCC6)n5)c4)ccnc23)c1`, `Cc1ccc(-n2c(=O)n(OCc3ccccc3)c(=O)c3cc(F)c(N4CCCC4)nc32)cc1` is higher in melting point: 66 °C for the first, 192 to 194 °C for the second.

Compared with `CN1CCCC1=NC(=O)Nc1ccc([N+](=O)[O-])cc1`, `NC(=S)c1ccc([N+](=O)[O-])cc1` is lower in melting point: 180 to 182 °C for the first, 165 to 167 °C for the second.

First: CC1(C)CN2C(N)=NC(c3ccc(OC(F)(F)F)cc3)(c3cccc(-c4cccnc4F)c3)C2=N1 (stereo unspecified)
Second: COc1ccc(C(=O)Nc2cc(-c3c(-c4ccc(F)c(C)c4)nc4ccc(N(C)C)nn34)ccn2)cc1
The melting point of the first is lower: 89 to 97 °C for the first, 224 to 225 °C for the second.

First: COc1ccc2c(c1)C(Oc1ccccc1)=C(C(=O)O)S2=O (stereo unspecified)
Second: COc1ccc(S(=O)(=O)N2CCc3cccc(-c4cccs4)c32)cc1
The melting point of the first is higher: 204 to 206 °C for the first, 128 to 129 °C for the second.

Compared with `C=C(CS(=O)(=O)Cc1ccccc1)c1ccccc1`, `CC1COc2cc(NC(=O)OCc3ccccc3)ccc2N1C(=O)OCc1ccccc1` (stereo unspecified) is lower in melting point: 118 °C for the first, 104 to 106 °C for the second.

First: COC(=O)[C@H](c1ccccc1Cl)N1CCc2sc(OC(=O)N(C)C)cc2C1
Second: CCOC(=O)c1[nH]c2cc3c(sc4ccccc43)c(C)c2c1C
The melting point of the first is lower: 96 to 98 °C for the first, 191 to 193 °C for the second.

First: O=C1CC(c2ccc(F)cc2)c2ccc(F)cc21 (stereo unspecified)
Second: Fc1cccc(COc2ccc(I)cc2)c1
The melting point of the first is higher: 70 to 73 °C for the first, 48 °C for the second.

First: CCc1nn(C2CCCC2)c2cc(C(=O)Nc3ccc(C(=O)O)cc3)ccc12
Second: CS(=O)(=O)c1ccc(/C(=C\C2CCCCCC2)C(=O)Nc2nccs2)cc1
The melting point of the first is higher: 249 to 251 °C for the first, 163 to 165 °C for the second.

First: C[Si](C)(C)c1cccc2c1Sc1c(cccc1[Si](C)(C)C)S2
Second: CC(C)n1nc(-c2sc(N)nc2-c2ccccc2)ccc1=O
The melting point of the first is lower: 90 to 91 °C for the first, over 250 °C for the second.

First: CCCCc1c(-c2ccncc2)[nH]c(-c2ccncc2)c1C(=O)OCC
Second: COc1ccc(-c2nc(C(C)=O)cn2-c2ccc(OC)cc2)cc1
The melting point of the first is higher: 256 to 258 °C for the first, 116 to 117 °C for the second.

First: COC(=O)C1CN(C(=O)[C@H](CO)NC(=O)OCc2ccccc2)C1
Second: N#CC1CN1C(=O)NC(=O)c1ccccc1 (stereo unspecified)
The melting point of the first is lower: 90 to 95 °C for the first, 144 to 146 °C for the second.

First: COC(=O)c1ccc(C=CC(=O)Nc2cnc3c(C)cc(C)cc3c2-c2ccccc2Cl)cc1
Second: Cn1nnnc1Cc1ccc(NC(=O)/C=C/c2cnn(C)c2-c2ccc(F)cc2)cc1
The melting point of the first is lower: 225 to 226 °C for the first, 243 to 244 °C for the second.

Compared with `CCOC(=O)CC(=O)c1cc(F)c(Cl)cc1Cl`, `C=C1CCc2c(F)c(F)cc3c(=O)c(C(=O)OCC)cn1c23` is higher in melting point: 44 to 45 °C for the first, 272 to 274 °C for the second.

First: Cc1sc(-c2cccc(Br)c2)nc1O
Second: Cc1[nH]c2ncnc(Nc3cccc(Cl)c3)c2c1C
The melting point of the first is lower: 148 to 149 °C for the first, 239 to 240 °C for the second.

Compared with `CNC(=O)c1ccc(N2CCN(Cc3cc4c(c(OC(F)F)c3)OC(C)C(=O)N4)CC2)cc1` (stereo unspecified), `CC1CN(c2ccc(-c3[nH]nc4c3C(=O)c3c(NC(=O)NN5CCOCC5)cccc3-4)cc2)CCN1` (stereo unspecified) is higher in melting point: 210 to 213 °C for the first, 230 °C for the second.

First: CCC(C)Cc1c(-c2ccc(C(N)=S)cc2Cl)c(C)nc2ncnn12 (stereo unspecified)
Second: CSCC#Cc1cc(F)c2ncc(C(=O)NCc3ccc(Cl)cc3)c(O)c2c1
The melting point of the first is lower: 173 to 177 °C for the first, 259 to 261 °C for the second.

Compared with `COCC(=O)OC(n1cc(C#N)c(-c2cccc(Cl)c2Cl)c1)C(Cl)(Cl)Cl` (stereo unspecified), `COc1nc2ccccc2cc1NC(=O)N1CCN(c2ccccc2Cl)CC1` is lower in melting point: 88 to 90 °C for the first, 79 to 80 °C for the second.

First: N#CCCCCC(=NO)c1ccc(Br)cc1
Second: C=CCc1cc(C(=O)O)ccc1O
The melting point of the first is lower: 86.5 to 88 °C for the first, 119 to 123 °C for the second.

Compared with `COc1cc(C)c(C(=O)CCCCCCCCCCO)c(O)c1OC`, `CCCCCCCCCCCCCCc1ccc(CCCCCC)c(O)c1` is lower in melting point: 81 °C for the first, 43 to 45 °C for the second.

First: COC(=O)N1CCN(C(=O)c2cc(S(=O)(=O)NN(C)C)ccc2N)CC1
Second: COc1ccccc1-n1c(=O)[nH]c2c(C(N)=O)nc(N[C@@H]3CCNC3)nc21
The melting point of the first is lower: 169 to 171 °C for the first, over 400 °C for the second.

First: CC(C(C#N)C(=O)O)C(C)(C)C (stereo unspecified)
Second: CC(=O)C(Cc1cc(O)c(O)c([N+](=O)[O-])c1)C(=O)C1CC1 (stereo unspecified)
The melting point of the first is lower: 68 to 78 °C for the first, 98 to 104 °C for the second.

First: ON=C1CCc2cc(Cl)ccc21
Second: O=[N+]([O-])c1cccc(O)c1CO
The melting point of the first is higher: 181 to 182 °C for the first, 97 to 99 °C for the second.

First: N#CC(C#N)=C1N(CCCN2CCCCC2)CCN1CCN1CCc2ccccc2C1
Second: COc1ccc(-c2c(Br)c(CN3C(=O)CCC3=O)nc3sc4c(c23)CCNC4)cc1
The melting point of the first is lower: 101 to 102 °C for the first, 219 to 221 °C for the second.

First: N[C@@H](Cc1cccc(OCC(F)(F)C(F)F)c1)[C@H](O)c1ccc(F)cc1 (racemic)
Second: COc1cccc(Oc2c(NS(=O)(=O)c3ccc(C(C)(C)C)cc3)ncnc2OCCCO)c1
The melting point of the first is lower: 77 to 78 °C for the first, 113 to 114 °C for the second.

Compared with `Cc1ccsc1C(=O)NP(N)(N)=O`, `C=Cc1c[nH]c(=O)nc1N` is higher in melting point: 267 to 275 °C for the first, over 290 °C for the second.

For `O=COCc1ccc2c(c1)C(C(Cl)(Cl)Cl)OC(C(Cl)(Cl)Cl)O2` (stereo unspecified), the melting point was 75 to 77 °C.
